Series [1] relates to human neuroblastoma cell line GOTO. The experiment in a line: Activity on neuroblastoma cell line GOTO (cell number, number and length of neurites). The format is cell-based. The note with it: for Number of cells (mean ± S.E.): control 5.30 ± 0.23. On the procedure: (§1) The biological activities in vitro of the compounds of formula (I) on cells of the nervous system were tested. The cells tested were human neuroblastoma cell line GOTO [see Sekiguchi, M., Oota, T., Sakakibara, K., Inui, N. & Fujii, G., Japan. J. Exp. Med., 49, 67-83 (1979)], and neuroblastoma cell line NB-1 [see Miyake, S., Shimo, Y., Kitamura, T., Nojyo, Y., Nakamura, T., Imkashuku, S. and Abe, T., The Autonomic Nervous System, 10, 115-120 (1973)], and mouse neuroblastoma cell line neuro-2a (Dainippon Pharmaceutical Co., Ltd.) which have been established as the cells of the nervous system. The above neuve cells were grown in an incubator at 37° C. in the presence of 5% carbon dioxide gas exponentially, and then cultivated for a certain period of time together with the compounds of formula (I).
The effect of the compounds of this invention on neuroblastoma cells was examined by the following method.
A culture medium [composed of 45% of RPMI 1640 medium, 45% modified Eagle's medium (MEM) and 10% of fetal calf serum (FCS) and containing penicillin G sodium (100 units/ml) and streptomycin sulfate (100 microgram/ml)] containing neurobalstoma cell line GOTO in the logarithmic growth period was poured in an amount of 2 ml each into polystyrene dishes (35 mm; made by Corning Co.) so that the cell concentration was 2 to 6×10^4 cells per dish, and the cells were cultured for 1 to 2 days in a carbon dioxide gas incubator containing 5% of carbon dioxide gas in air at 37° C. Then, the culture fluid was removed, and 2 ml of a fresh serum-free culture fluid (consisting of 50% of RPMI medium and 50% of MEM medium and containing penicillin G sodium and streptomycin sulfate in the same amounts as above) was added. At the same time, a presterilized PBS solution (phosphate buffered saline) of each of the test compounds in various concentrations was added to each of the dishes. After culturing for 24 hours, the number of living cells was counted. Furthermore, the culture was photographed, and from the photos, the number and length of neurites per cell were measured. The numer of living cells was counted for 3 to 6 dishes by resistance to staining with erythrosine dye. The number and length of the neurites were measured with regard to 6 photos (more than 200 cells per photo).

The subject of series [2] is mouse neuroblastoma cell line neuro-2a. The experiment in a line: Activity on neuro-2a, cells with outgrown neurites. The format is cell-based. On the procedure:
In order to examine the effects of the test compounds, the following method was also employed.
Mouse neuro 2a cells in the logarithmic growth period in the Dulbecco's modified Eagle's medium (DMEM) containing 10% FCS was seeded in a 48-well plate so that the number of cells was 1,000 cells/well, and cultured for one day in 0.25 ml of the culture fluid in each well. The culture medium was then replaced by a medium containing each of the test compounds and FCS, and the cells were further cultured for 24 hours. Then, a 4% aqueous glutaraldehyde solution in the same amount as the medium (0.25 ml) was added, and the culture fluid was left to stand at room temperature for 2 hours to fix the cells. After washing with water, a 0.05% aqueous solution of methylene blue was added to stain the cells. Under a microscope, the number of cells containing outgrown neurites (cells having at least one neutrite with a length at least two times as large as the long diameter of the cell) was counted visually, and the proportion of these cells in the entire cells was calculated. The well was observed over 5 or more visual fields (at least 2% of the entire surface area of the well) continuous to the left and right from a mark put at the center of the well, and more than 200 cells was counted. One drug compound was used in 6 different concentrations at most, and three runs were conducted for each concentration.

The subject of series [3] is mice. The experiment in a line: Acute toxicity, mouse. As to conditions: Table 7, 1000 mg/kg p.o., 24 hours. The format is in vivo. On the procedure:
The acute toxicity of the compounds of the invention was examined by the following method.
Male ddy-strain 5-week old mice and male Wistar-strain 8 week old rats, five per group, were used as experimental animals. Each of the compounds was dissolved in saline and administered perorally, and the toxicity of the compound was assessed 24 hours after the administration.

The subject of series [4] is mouse neuroblastoma cell line neuro-2a. The experiment in a line: Activity on cell line neuro-2a (simple method). The format is cell-based. On the procedure: as §1, with “(I). […]” for “(I).”
As a simple method of evaluation, the number of cells have neurites with a length equal to, or larger than, the long diameter of the cell was divided by the total number of cells.

The mark [5] stands for this setting: Table 3 Run No. 6, 0.1 mM, control 4.4 ± 0.9.

Molecules are shown by their SMILES.

As to `c1ccc(CN2CCN(c3ncccn3)CC2)cc1` [Compound 132], the “Number of neurites/cell (mean ± S.D.)” value is 1.95 ± 0.46 neurites/cell in series [1] (Table 1 Run No. 5, 1 μg/ml, control 1.96 ± 0.64) and 2.03 ± 0.63 neurites/cell in series [1] (Table 1 Run No. 5, 10 μg/ml, control 1.96 ± 0.64). Besides, the “Number of cells (mean ± S.E.)” value in series [1] (Table 1 Run No. 5, 1 μg/ml) is 5.63 ± 0.68 × 10^4 /dish; in series [1] (Table 1 Run No. 5, 10 μg/ml) it was 6.26 ± 0.27 × 10^4 /dish. For the same molecule, the “Length of neurites (mean ± S.D.)” value was determined as 52.61 ± 32.09 μm/cell in series [1] (Table 1 Run No. 5, 1 μg/ml, control 46.41 ± 33.28) and 52.85 ± 30.00 μm/cell in series [1] (Table 1 Run No. 5, 10 μg/ml, control 46.41 ± 33.28). Further, the “Cells having neurites with a length at least twice the long diameter of cell/total number of cells” value in series [2] (Table 3 Run No. 1, 0.027 μM, control 2.2 ± 0.8) stood at 4.2 ± 1.0%; in series [2] (Table 3 Run No. 1, 0.27 μM, control 2.2 ± 0.8) it was 4.3 ± 1.2%; in series [2] (Table 3 Run No. 1, 27 μM, control 2.2 ± 0.8), 4.3 ± 0.5%; in series [2] (Table 3 Run No. 2, 0.1 mM, control 1.9 ± 0.9), 4.4 ± 0.7%; in series [2] (Table 3 Run No. 2, 0.3 mM, control 1.9 ± 0.9) it was 11.2 ± 1.3%; in series [2] (Table 3 Run No. 2, 1 mM, control 1.9 ± 0.9), 9.1 ± 3.0%. In series [3], the “Number of dead animals/number of test animals” value is reported as 0/5.
As for `O=C1CCCc2nc(N3CCNCC3)ncc2N1` [Compound 502], the “Length of neurites (mean ± S.D.)” value in series [1] (Table 1, Run No. 7 by footnote, 1 μg/ml, control 42.20 ± 17.75, all *P <0.01) is listed as 52.24 ± 23.92 μm/cell. Also, the “Number of neurites/cell (mean ± S.D.)” value in series [1] (Table 1, last control group (Run No. 7 by footnote), 1 μg/ml, control 1.77 ± 0.68) was 1.99 ± 0.65 neurites/cell. Also, the “Cells having neurites with a length at least twice the long diameter of cell/total number of cells” value in series [2] (Table 3 Run No. 8, 0.3 mM, control 3.7 ± 0.4) was found to be 5.5 ± 2.0%; in series [2] (Table 3 Run No. 8, 1 mM, control 3.7 ± 0.4) it was 7.8 ± 1.2%. In addition, in series [3], the “Number of dead animals/number of test animals” value is recorded as 0/5.
For `O=C1NCc2nc(N3CCNCC3)ncc21` [Compound 620], the “Cells having neurites with a length at least twice the long diameter of cell/total number of cells” value is listed as 7.2 ± 0.3% in series [2] (setting [5]); 10.5 ± 3.2% in series [2] (Table 3 Run No. 6, 1 mM, control 4.4 ± 0.9); 20.7 ± 2.5% in series [2] (Table 3 Run No. 6, 3 mM, control 4.4 ± 0.9); 6.2 ± 1.5% in series [2] (Table 3 Run No. 9, 0.3 mM, control 2.0 ± 1.0); 11.3 ± 3.3% in series [2] (Table 3 Run No. 9, 1 mM, control 2.0 ± 1.0); 19.6 ± 0.5% in series [2] (Table 3 Run No. 9, 3 mM, control 2.0 ± 1.0). For the same molecule, the “Average of the proportions” value in series [4] (Table 2 neuro-2a Run No. 3, 0.01 μg/ml, control 2.0) is reported as 13.01%; in series [4] (Table 2 neuro-2a Run No. 3, 0.1 μg/ml, control 2.0) it was 15.46%; in series [4] (Table 2 neuro-2a Run No. 3, 1 μg/ml, control 2.0), 9.8%. Moreover, the “Number of dead animals/number of test animals” value in series [3] is 0/5.
As to `Cn1[nH]c2nc(N3CCNCC3)ncc2c1=O` [Compound 802], in series [1] (Table 1, Run No. 7 by footnote, 10 μg/ml, control 1.77 ± 0.68), the “Number of neurites/cell (mean ± S.D.)” value is listed as 2.02 ± 0.71 neurites/cell. In series [1] (Table 1, Run No. 7 by footnote, 10 μg/ml, control 42.20 ± 17.75, all *P <0.01), the “Length of neurites (mean ± S.D.)” value amounted to 52.16 ± 19.79 μm/cell. The “Cells having neurites with a length at least twice the long diameter of cell/total number of cells” value in series [2] (setting [5]) is recorded as 7.5 ± 2.2%. The “Average of the proportions” value came out at 19.68% in series [4] (Table 2 neuro-2a Run No. 2, 1 μg/ml, control 7.9) and 15.51% in series [4] (Table 2 neuro-2a Run No. 2, 10 μg/ml, control 7.9).

The record behind these values is patent US4959368A, “Therapeutic agent for neurological diseases” (Mitsui Petrochemical Industries Ltd., priority 1986, dated 1990).
